In patent US9642869B2, “Boronic acid derivatives and therapeutic uses thereof” (Rempex Pharmaceuticals, Inc., priority 2013, dated 2017):
Read-outs that look alike come from different tables or passages of the source.

Legend:
[1] = Serum stability of prodrugs (hydrolysis by rat serum); format: in vitro ADME; conditions: 37° C.
Procedure: (§1) Prodrug strategy is one of the ways to achieve or increase oral bioavailability of therapeutic drugs. Compound 13 was used as template a for various ester prodrugs. After a prodrug molecule is absorbed into systemic circulation, the prodrug molecule can be hydrolyzed in the blood to release the active form. The hydrolysis of several prodrugs by rat and human serum were evaluated.
(§2) For all stability experiments the test compounds are treated with rat or human serum in Eppendorf tubes. One example of the testing procedures includes: 992 μl of serum was prewarmed at 37° C. for 2 minutes and then 8 μl of a compound (at 5 mg/ml, 125×) was added to get a final concentration of 40 μg/ml and immediately mixed. Alternatively, serum stability can be tested at 1 mg/ml. […] After vortexing for 30 seconds, the tube was centrifuged in a microcentrifuge for 10 minutes at 15K rpm. Next, 100 μl of the supernatant was combined with 600 μl of water and injected on LC-MS using 0.1% formic acid in water for mobile phase A and 0.1% formic acid in methanol for mobile phase B on an ACE 5 C18 2.1×100 mm column with a 10 μL injection. The flow rate and gradient are adjusted as needed to give the desired resolution and run time. The pH of the mobile phase is adjusted if needed to improve the chromatography.
(§3) The time course of both the disappearance of a prodrug and the appearance of the active form of that prodrug is presented in Table 9a and Table 9b.

[2] = Serum stability of prodrugs (hydrolysis by human serum); format: in vitro ADME; conditions: 37° C.
Procedure: as §1, §2, §3

SHV-12 = SHV-12 (Klebsiella pneumoniae, UniProt P0AD64, E235K/G234S/L31Q); assay: Inhibition of nitrocefin cleavage by purified enzyme (Ki); format: biochemical; conditions: nitrocefin reporter substrate, 10 min preincubation; read-out: Ki (SHV-12, NCF)
SHV-12, sequence (P0AD64 22-286 L31Q/G234S/E235K): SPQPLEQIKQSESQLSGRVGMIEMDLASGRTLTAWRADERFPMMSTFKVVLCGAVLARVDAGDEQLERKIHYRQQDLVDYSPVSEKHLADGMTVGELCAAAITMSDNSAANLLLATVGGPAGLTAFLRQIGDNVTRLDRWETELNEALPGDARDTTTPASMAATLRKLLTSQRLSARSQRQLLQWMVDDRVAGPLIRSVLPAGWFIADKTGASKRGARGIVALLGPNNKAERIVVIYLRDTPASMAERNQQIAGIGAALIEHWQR
Procedure: Purified enzymes were mixed with various concentrations of inhibitors in reaction buffer and incubated for 10 min at room temperature. Nitrocefin was added and substrate cleavage profiles were recorded at 490 nm every 10 sec for 10 min.

SHV-5 ec308 [3] = format: cell-based; conditions: minimum BLI concentration inhibiting growth with tigemonam at 4 μg/mL
CTX-M-15 KP1009 = format: cell-based
SHV-5 ec308 [4] = assay: Aztreonam potentiation (MPC@4); format: cell-based; conditions: minimum BLI concentration inhibiting growth with 4 μg/mL aztreonam
KP1004 KPC-2 = assay: Biapenem potentiation (MPC@1); format: cell-based; conditions: minimum BLI concentration inhibiting growth with 1 μg/mL biapenem
Procedure: (§4) Biapenem was present in the test medium at 1 μg/mL. […] Table 3 summarizes the BLI potency of biapenem potentiation (MPC@1) for two strains overexpressing class A (KPC) and class D (OXA-48) carbapenemases. Biapenem MIC for each strain is also shown.

OXA-48 KP1086 = assay: Biapenem potentiation (MPC@1); format: cell-based; conditions: minimum BLI concentration inhibiting growth with 1 μg/mL biapenem
Procedure: as §4

ECL1002 [5] = assay: Aztreonam potentiation (MPC@4); format: cell-based; conditions: minimum BLI concentration inhibiting growth with 4 μg/mL aztreonam
CTX-M-14 KP1005 = format: cell-based
KPC-2 KP1004 = assay: Aztreonam potentiation (MPC@4); format: cell-based; conditions: minimum BLI concentration inhibiting growth with 4 μg/mL aztreonam
ECL1002 [6] = format: cell-based; conditions: minimum BLI concentration inhibiting growth with tigemonam at 4 μg/mL
[7] = Intravenous pharmacokinetics; format: in vivo; conditions: rat, plasma, rats, IV infusion over 0.5 hours, read-out: Free Cl (converted)
Procedure: Rats (n=3 per compound) were administered by a single infusion. IV doses were infused over 0.5 hours via an indwelling femoral vein cannula. Plasma (˜0.3 mL) samples were collected from each rat at designated time points up to 24 hours. Blood samples were centrifuged within 5 min of collection at 12000 g for 5 min to obtain plasma. The plasma samples were stored at −80° C. until analyzed. Data were analyzed using WinNonlin.

CCCC(=O)OCOC(=O)c1cccc2c1OB(O)[C@@H](NC(=O)CSC)C2 [Compound 25, (R)-butyryloxymethyl 2-hydroxy-3-(2-(methylthio)acetamido)-3,4-dihydro-2H-benzo[e][1,2]oxaborinine-8-carboxylate]
Measured Initial Conc. in Serum (prodrug) [1]: 31.2 µg/mL
Conc. at t = 2 hr (prodrug) [1]: 1.94 µg/mL
Conc. at t = 4 hr (prodrug) [1]: NDT
Measured Initial Conc. in Serum (prodrug) [2]: 27.3 µg/mL
Conc. at t = 2 hr (prodrug) [2]: NDT
Conc. at t = 4 hr (prodrug) [2]: NDT

CSCC(=O)N[C@H]1Cc2cccc(C(=O)OCOC(=O)OC(C)C)c2OB1O [Compound 24, (R)-(isopropoxycarbonyloxy)methyl 2-hydroxy-3-(2-(methylthio)acetamido)-3,4-dihydro-2H-benzo[e][1,2]oxaborinine-8-carboxylate]
Measured Initial Conc. in Serum (prodrug) [1]: 1660 µg/mL
Conc. at t = 2 hr (prodrug) [1]: 910 µg/mL
Conc. at t = 4 hr (prodrug) [1]: 330 µg/mL
Measured Initial Conc. in Serum (prodrug) [2]: 1790 µg/mL
Conc. at t = 2 hr (prodrug) [2]: 550 µg/mL
Conc. at t = 4 hr (prodrug) [2]: 240 µg/mL

CCC(CC)C(=O)OCOC(=O)c1cccc2c1OB(O)[C@@H](NC(=O)CSC)C2 [Compound 26, (R)-(2-ethylbutanoyloxy)methyl 2-hydroxy-3-(2-(methylthio)acetamido)-3,4-dihydro-2H-benzo[e][1,2]oxaborinine-8-carboxylate]
Measured Initial Conc. in Serum (prodrug) [1]: 1380 µg/mL
Conc. at t = 2 hr (prodrug) [1]: 1150 µg/mL
Conc. at t = 4 hr (prodrug) [1]: 1080 µg/mL
Measured Initial Conc. in Serum (prodrug) [2]: 1520 µg/mL
Conc. at t = 2 hr (prodrug) [2]: 920 µg/mL
Conc. at t = 4 hr (prodrug) [2]: 790 µg/mL

O=C(CSc1nncs1)N[C@H]1Cc2cccc(C(=O)O)c2OB1O [Compound 7, (R)-3-(2-(1,3,4-thiadiazol-2-ylthio)acetamido)-2-hydroxy-3,4-dihydro-2H-benzo[e][1,2]oxaborinine-8-carboxylic acid]
Ki (SHV-12): < 1 nM
TIG MPC4 SHV-5 ec308 (SHV-5 ec308 [3]): X (MIC of less than 1 μg/mL)
TIG MPC4 CTX-M-15 KP1009 (CTX-M-15 KP1009): X (key: X: MIC of less than 1 μg/mL; Y: MIC of 1 μg/mL to 10 μg/mL; Z: MIC of greater than 10 μg/mL)
AZT MPC4 SHV-5 ec308 (SHV-5 ec308 [4]): X (MIC of less than 1 μg/mL)
BPM MPC1 KP1004 KPC-2 (KP1004 KPC-2): X (MIC of less than 1 μg/mL)
BPM MPC1 OXA-48 KP1086 (OXA-48 KP1086): Y (MIC of 1 μg/mL to 10 μg/mL)
AZT MPC4 ECL1002 (ECL1002 [5]): Y (MIC of 1 μg/mL to 10 μg/mL)
TIG MPC4 CTX-M-14 KP1005 (CTX-M-14 KP1005): X (key: X: MIC of less than 1 μg/mL; Y: MIC of 1 μg/mL to 10 μg/mL; Z: MIC of greater than 10 μg/mL)
AZT MPC4 KPC-2 KP1004 (KPC-2 KP1004): Y (MIC of 1 μg/mL to 10 μg/mL)
TIG MPC4 ECL1002 (ECL1002 [6]): Y (MIC of 1 μg/mL to 10 μg/mL)
clearance ([7]; dose 20 mg/kg): 60.7 mL/min/kg

O=C(N[C@H]1Cc2cccc(C(=O)O)c2OB1O)c1cccnc1 [Compound 12, (R)-2-hydroxy-3-(nicotinamido)-3,4-dihydro-2H-benzo[e][1,2]oxaborinine-8-carboxylic acid]
Ki (SHV-12): < 1 nM
TIG MPC4 SHV-5 ec308 (SHV-5 ec308 [3]): Y (MIC of 1 μg/mL to 10 μg/mL)
TIG MPC4 CTX-M-15 KP1009 (CTX-M-15 KP1009): Y (key: X: MIC of less than 1 μg/mL; Y: MIC of 1 μg/mL to 10 μg/mL; Z: MIC of greater than 10 μg/mL)
AZT MPC4 SHV-5 ec308 (SHV-5 ec308 [4]): Y (MIC of 1 μg/mL to 10 μg/mL)
BPM MPC1 KP1004 KPC-2 (KP1004 KPC-2): X (MIC of less than 1 μg/mL)
BPM MPC1 OXA-48 KP1086 (OXA-48 KP1086): Y (MIC of 1 μg/mL to 10 μg/mL)
AZT MPC4 ECL1002 (ECL1002 [5]): X (MIC of less than 1 μg/mL)
TIG MPC4 CTX-M-14 KP1005 (CTX-M-14 KP1005): Y (key: X: MIC of less than 1 μg/mL; Y: MIC of 1 μg/mL to 10 μg/mL; Z: MIC of greater than 10 μg/mL)
AZT MPC4 KPC-2 KP1004 (KPC-2 KP1004): Y (MIC of 1 μg/mL to 10 μg/mL)
TIG MPC4 ECL1002 (ECL1002 [6]): X (MIC of less than 1 μg/mL)
clearance ([7]; dose 10 mg/kg): 45.7 mL/min/kg

CSCC(=O)N[C@H]1Cc2cccc(C(=O)OCOC(=O)C(C)(C)C)c2OB1O [Compound 23, (R)-pivaloyloxymethyl 2-hydroxy-3-(2-(methylthio)acetamido)-3,4-dihydro-2H-benzo[e][1,2]oxaborinine-8-carboxylate]
Measured Initial Conc. in Serum (prodrug) [1]: 1780 µg/mL
Conc. at t = 2 hr (prodrug) [1]: 1440 µg/mL
Conc. at t = 4 hr (prodrug) [1]: 1100 µg/mL
Measured Initial Conc. in Serum (prodrug) [2]: 1860 µg/mL
Conc. at t = 2 hr (prodrug) [2]: 1350 µg/mL
Conc. at t = 4 hr (prodrug) [2]: 1000 µg/mL

CSC(=O)N[C@H]1Cc2cccc(C(=O)O)c2OB1O [Compound 11, (R)-2-hydroxy-3-(methylthiocarbonylamino)-3,4-dihydro-2H-benzo[e][1,2]oxaborinine-8-carboxylic acid]
Ki (SHV-12): < 1 nM
TIG MPC4 SHV-5 ec308 (SHV-5 ec308 [3]): Y (MIC of 1 μg/mL to 10 μg/mL)
TIG MPC4 CTX-M-15 KP1009 (CTX-M-15 KP1009): Y (key: X: MIC of less than 1 μg/mL; Y: MIC of 1 μg/mL to 10 μg/mL; Z: MIC of greater than 10 μg/mL)
AZT MPC4 SHV-5 ec308 (SHV-5 ec308 [4]): X (MIC of less than 1 μg/mL)
BPM MPC1 KP1004 KPC-2 (KP1004 KPC-2): X (MIC of less than 1 μg/mL)
BPM MPC1 OXA-48 KP1086 (OXA-48 KP1086): Y (MIC of 1 μg/mL to 10 μg/mL)
AZT MPC4 ECL1002 (ECL1002 [5]): Y (MIC of 1 μg/mL to 10 μg/mL)
TIG MPC4 CTX-M-14 KP1005 (CTX-M-14 KP1005): Y (key: X: MIC of less than 1 μg/mL; Y: MIC of 1 μg/mL to 10 μg/mL; Z: MIC of greater than 10 μg/mL)
AZT MPC4 KPC-2 KP1004 (KPC-2 KP1004): Y (MIC of 1 μg/mL to 10 μg/mL)
TIG MPC4 ECL1002 (ECL1002 [6]): Y (MIC of 1 μg/mL to 10 μg/mL)

O=C(N[C@H]1Cc2cccc(C(=O)O)c2OB1O)c1cncnc1 [Compound 18, (R)-2-hydroxy-3-(pyrimidine-5-carboxamido)-3,4-dihydro-2H-benzo[e][1,2]oxaborinine-8-carboxylic acid]
Ki (SHV-12): < 1 nM
TIG MPC4 SHV-5 ec308 (SHV-5 ec308 [3]): Y (MIC of 1 μg/mL to 10 μg/mL)
TIG MPC4 CTX-M-15 KP1009 (CTX-M-15 KP1009): Y (key: X: MIC of less than 1 μg/mL; Y: MIC of 1 μg/mL to 10 μg/mL; Z: MIC of greater than 10 μg/mL)
AZT MPC4 SHV-5 ec308 (SHV-5 ec308 [4]): Y (MIC of 1 μg/mL to 10 μg/mL)
BPM MPC1 KP1004 KPC-2 (KP1004 KPC-2): Y (MIC of 1 μg/mL to 10 μg/mL)
BPM MPC1 OXA-48 KP1086 (OXA-48 KP1086): Y (MIC of 1 μg/mL to 10 μg/mL)
AZT MPC4 ECL1002 (ECL1002 [5]): Y (MIC of 1 μg/mL to 10 μg/mL)
TIG MPC4 CTX-M-14 KP1005 (CTX-M-14 KP1005): Y (key: X: MIC of less than 1 μg/mL; Y: MIC of 1 μg/mL to 10 μg/mL; Z: MIC of greater than 10 μg/mL)
AZT MPC4 KPC-2 KP1004 (KPC-2 KP1004): Y (MIC of 1 μg/mL to 10 μg/mL)
TIG MPC4 ECL1002 (ECL1002 [6]): Y (MIC of 1 μg/mL to 10 μg/mL)

Nc1nnc(SCC(=O)N[C@H]2Cc3cccc(C(=O)O)c3OB2O)s1 [Compound 5, (R)-3-(2-(5-amino-1,3,4-thiadiazol-2-ylthio)acetamido)-2-hydroxy-3,4-dihydro-2H-benzo[e][1,2]oxaborinine-8-carboxylic acid]
TIG MPC4 SHV-5 ec308 (SHV-5 ec308 [3]): Y (MIC of 1 μg/mL to 10 μg/mL)
TIG MPC4 CTX-M-15 KP1009 (CTX-M-15 KP1009): X (key: X: MIC of less than 1 μg/mL; Y: MIC of 1 μg/mL to 10 μg/mL; Z: MIC of greater than 10 μg/mL)
AZT MPC4 SHV-5 ec308 (SHV-5 ec308 [4]): X (MIC of less than 1 μg/mL)
BPM MPC1 KP1004 KPC-2 (KP1004 KPC-2): X (MIC of less than 1 μg/mL)
BPM MPC1 OXA-48 KP1086 (OXA-48 KP1086): Y (MIC of 1 μg/mL to 10 μg/mL)
AZT MPC4 ECL1002 (ECL1002 [5]): Y (MIC of 1 μg/mL to 10 μg/mL)
TIG MPC4 CTX-M-14 KP1005 (CTX-M-14 KP1005): X (key: X: MIC of less than 1 μg/mL; Y: MIC of 1 μg/mL to 10 μg/mL; Z: MIC of greater than 10 μg/mL)
AZT MPC4 KPC-2 KP1004 (KPC-2 KP1004): Y (MIC of 1 μg/mL to 10 μg/mL)
TIG MPC4 ECL1002 (ECL1002 [6]): X (MIC of less than 1 μg/mL)
clearance ([7]; dose 20 mg/kg): 28.5 mL/min/kg
